In brackets after ≈: the same amount, converted by molar mass.
Tests used:
[1] = test system: DT-R cells (pRRE3-luc-transfected v-ki-ras-transformed NIH3T3 cells); signal derived from Ras oncogene products; experiment: Inhibitory effect against cellular signaling derived from Ras oncogene products: luciferase reporter, dissociation of DT-R from DT-C activity (MAC); format: cell-based, mouse; details: minimal tested concentration at which luciferase activities of DT-C cells and DT-R cells dissociated
Method in brief: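 DT-R (pRRE3-luc) and control DT-C (pGV-P) v-Ki-ras NIH3T3 cells were exposed 24 h to compound in 3-fold dilutions in DMEM/10% FCS at 37 °C, then lysed for luciferase luminescence. MAC is the lowest tested concentration at which DT-R and DT-C activities dissociate.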

[2] = test system: human lung adenocarcinoma A549; experiment: In vitro cell growth inhibition test, MTT assay; format: cell-based; details: MTT assay 4 days after compound addition
Method in brief: (§1)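 Growth inhibition was measured by MTT assay across a panel of human tumour cell lines that also included pancreatic cancer PANC-1.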

[3] = test system: human squamous lung cancer Ma44; experiment: In vitro cell growth inhibition test, MTT assay; format: cell-based; details: MTT assay 4 days after compound addition
Method in brief: as §1

human colon cancer HT29 = experiment: In vitro cell growth inhibition test, MTT assay; format: cell-based; details: MTT assay 4 days after compound addition
Method in brief: as §1

[4] = test system: human squamous lung cancer RERF-RC-AI; experiment: In vitro cell growth inhibition test, MTT assay; format: cell-based; details: MTT assay 4 days after compound addition
Method in brief: as §1

[5] = test system: DT-C cells (pGV-P-transfected v-ki-ras-transformed NIH3T3 cells); experiment: Luciferase activity in control DT-C cells (IC50-C): non-specific transcription-inhibitory effect or cytotoxicity; format: cell-based, mouse; details: tested concentration nearest to 50% inhibition in DT-C cells; index of non-specific transcription inhibition or cytotoxicity
Text: Test Example 1 Inhibitory Effect Against Cellular Signaling Derived From Ras Oncogene Products
1) Establishment of Cell Lines Used in Assay
Based on the reporter plasmid (pGV-P (Toyo Ink, Japan)), in which luciferase gene was ligated to SV40-derived minimal promoter, we constructed a plasmid designated pRRE3-luc by inserting 3 copies of chemically synthesized oligonucleotides (Sequence: CAGGATATGACTCT, derived from mouse NVL-3 (M. A. Reddy et al.(1992)Mol. Endocrinol., 6, 1051)) into upstream of the promoter. v-ki-ras-transformed NIH3T3 cells (DT cells, provided by Dr. Makoto Noda (Kyoto Univ., School of medicine)) were transfected with this plasmid by liposome-mediated transfection and transfected cell lines stably incorporated and maintained each plasmid were obtained. We named pGV-P and pRRE3-transfected cell line as DT-C and DT-R, respectively and used in the assay described below.
2) Preparation of Samples
i) All the cell lines were cultured in Dulbecco's Modified Essential Medium (DMEM: 10% Fetal Calf Serum(FCS: Hyclone, USA)) including […] kanamycin (Meiji Seika, Japan) in humidified incubator under condition of 5% CO2 at 37° C.
ii) DT-C and DT-R cells were seeded at 2500 cells/well into flat-bottom 96 well multiplate (Sumitomo bakelite) and incubated for 24 hours.
iii) Test compounds were prepared as 1 mg/ml DMSO solution.
iv) The solution of test compounds were added to the culture. Tested compounds are used at the concentration from […] to 0.51 ng/ml with by 3-fold dilution.
v) After 24 hours, the culture supernatant was completely aspirated and […] of cell-lysing solution (PGC-50 (Toyo Ink, Japan)) was added before cells were dried up. In order to the cells were lysed completely, multiwell plates were left at room temperature for 10 to 30 min. The plates were wrapped up and stored at −20° C. till the day of measurement.
3) Measurement of Samples
i) Melt the samples by putting 96 well multiplate at 37° C. and add 90 μl/well 25 mM Tris (pH 7.5).
ii) Transfer 50 μl of the sample (110 μl) to the 96 well microplate for measurement (Microlite 1 (Dynatech)).
iii) Measure the samples by the luminometer, LUMINOUS CT9000D (Dia-Yatron, Japan). We used Pickagene luminescence kit PGL2000 or LT2.0 (Toyo Ink, Japan) as substrates for luminescence measurement (50 μl/well).
4) Judgment of the Results
i) The luciferase activity of DT-C cells and DT-R cells were plotted in the graph where the relative activity and the compound concentration were expressed as Y-axis and X-axis, respectively. We judged by the degree of dissociation between the activities of DT-C cells and DT-R cells as an index.
ii) Concretely, efficacy of the compound was expressed by two values described below.
b) Among the points of concentration tested, the concentration which is the nearest to 50% inhibition concentration at DT-C cells (IC50-C), was shown as an index of non-specific transcription-inhibitory effect or of cytotoxicity. In case of positive compounds, 50% inhibition concentration above the area of active concentration in DT-C cells was expressed as IC50-C.

[6] = test system: human pancreas cancer PANC-1; experiment: In vitro cell growth inhibition test, MTT assay; format: cell-based; details: MTT assay 4 days after compound addition
Method in brief: as §1

Compound | IC50, A549 [2] [µg/mL] | IC50, Ma44 [3] [µg/mL] | IC50, HT29 (human colon cancer HT29) [µg/mL] | IC50, RERF-LC-AI [4] [µg/mL] | IC50, PANC-1 [6] [µg/mL] | MAC (Minimal Active Concentration) [1] [µg/mL] | IC50-C [5] [µg/mL]
CCNC(=Nc1ncncc1CSc1nnc(-c2ccoc2)o1)NCC [Compound D-30] | 0.1 (≈ 0.268 µM) | 2.4 (≈ 6.43 µM) | 0.033 (≈ 0.0884 µM) | 0.046 (≈ 0.123 µM) | – | 1.11 | >10
CCNC(=Nc1nc(CC)ncc1CSc1nnc(-c2ccccc2N)o1)NCC [Compound A-37] | – | 0.24 (≈ 0.563 µM) | 0.03 (≈ 0.0703 µM) | 0.021 (≈ 0.0492 µM) | 0.025 (≈ 0.0586 µM) | 0.0412 | 3.33 (≈ 7.81 µM)
CCNC(=Nc1ncncc1CSc1nnc(-c2ccsc2)o1)NCC [Compound D-21] | 0.049 (≈ 0.126 µM) | 0.35 (≈ 0.899 µM) | 0.016 (≈ 0.0411 µM) | 0.013 (≈ 0.0334 µM) | – | 0.37 | >10
CCNC(=Nc1nc(C)ncc1CSc1nnc(-c2ccc([N+](=O)[O-])cc2)o1)NC.Cl [Compound A-163] | – | – | – | – | – | 0.0137 | >10
CCCNC(=Nc1nc(C)ncc1CSc1nnc(-c2ccc([N+](=O)[O-])cc2)o1)NC.Cl [Compound A-164] | – | – | – | – | – | 0.0137 | >10
CCCNC(=Nc1ncncc1CSc1nnc(-c2ccc([N+](=O)[O-])cc2)o1)NCCC [Compound A-155] | – | 0.009 (≈ 0.0197 µM) | 0.08 (≈ 0.175 µM) | 0.006 (≈ 0.0131 µM) | 0.009 (≈ 0.0197 µM) | 0.00457 | 3.33 (≈ 7.29 µM)
CCCNC(=Nc1nc(C)ncc1CSc1nnc(-c2ccccc2N)o1)NCC [Compound A-36] | – | 0.026 (≈ 0.061 µM) | 0.015 (≈ 0.0352 µM) | 0.0072 (≈ 0.0169 µM) | 0.014 (≈ 0.0328 µM) | 0.0412 | 3.33 (≈ 7.81 µM)
CCNC(=Nc1ncncc1CSc1nnc(-c2ccc([N+](=O)[O-])cc2OC)o1)NCC [Compound A-124] | 0.026 (≈ 0.0567 µM) | 0.024 (≈ 0.0523 µM) | 0.028 (≈ 0.0611 µM) | 0.022 (≈ 0.048 µM) | – | 0.0137 | >10
CCNC(=Nc1ncncc1CSc1nnc(-c2ccc(C)nc2)o1)NCC [Compound D-29] | 0.22 (≈ 0.552 µM) | 0.52 (≈ 1.3 µM) | 0.09 (≈ 0.226 µM) | 0.11 (≈ 0.276 µM) | – | 1.11 | >10
CCCNC(=Nc1nc(C)ncc1CSc1nnc(-c2ccc(N)cc2)o1)NCCC.Cl.Cl [Compound A-160] | – | – | – | – | – | 0.0137 | >10
CCCNC(N)=Nc1nc(C)ncc1CSc1nnc(-c2ccc([N+](=O)[O-])cc2)o1 [Compound A-158] | – | 0.032 (≈ 0.0747 µM) | 0.025 (≈ 0.0583 µM) | 0.007 (≈ 0.0163 µM) | 0.03 (≈ 0.07 µM) | 0.0412 | >10
CCNC(=Nc1nc(C)ncc1CSc1nnc(-c2c(N)cccc2F)o1)NCC [Compound A-51] | – | 0.088 (≈ 0.204 µM) | 0.028 (≈ 0.065 µM) | 0.012 (≈ 0.0279 µM) | – | 0.123 | 3.33 (≈ 7.73 µM)
CCNC(=Nc1ncncc1CSc1nnc(-c2ccc(F)cc2)o1)NCC [Compound A-110] | 0.042 (≈ 0.105 µM) | 0.063 (≈ 0.157 µM) | 0.0077 (≈ 0.0192 µM) | 0.006 (≈ 0.0149 µM) | – | 0.123 | >10
CCNC(=Nc1nc(C)ncc1CSc1nnc(-c2ccc(Cl)cc2NC(C)=O)o1)NCC [Compound A-61] | – | 0.016 (≈ 0.0327 µM) | – | 0.0041 (≈ 0.00838 µM) | 0.0063 (≈ 0.0129 µM) | <0.000508 | >10
CCNC(=Nc1ncncc1CSc1nnc(-c2ccc(C(N)=S)cc2)o1)NCC [Compound A-123] | 0.15 (≈ 0.339 µM) | 0.09 (≈ 0.203 µM) | 0.041 (≈ 0.0926 µM) | 0.034 (≈ 0.0768 µM) | – | 1.11 | >10
CCNC(=Nc1nc(C)ncc1CSc1nnc(-c2ccc(F)cc2NC(C)=O)o1)NCC [Compound A-60] | – | 0.012 (≈ 0.0254 µM) | – | 0.004 (≈ 0.00846 µM) | 0.0039 (≈ 0.00825 µM) | <0.000508 | >10
CCNC(=Nc1nc(C)ncc1CSc1nnc(-c2cccnc2N)o1)NCC [Compound D-1] | – | – | – | – | – | 1.11 | >10
CCNC(=Nc1nc(C)ncc1CSc1nnc(-c2ccc(N)cc2O)o1)NCC [Compound A-96] | – | – | – | – | – | 0.370 | >10

Now from value to molecule, other results behind:

IC50, A549 [2] [µg/mL] | IC50, Ma44 [3] [µg/mL] | IC50, HT29 (human colon cancer HT29) [µg/mL] | IC50, RERF-LC-AI [4] [µg/mL] | IC50, PANC-1 [6] [µg/mL] | Compound | MAC (Minimal Active Concentration) [1] [µg/mL] | IC50-C [5] [µg/mL]
– | 0.04 (≈ 0.0938 µM) | 0.012 (≈ 0.0281 µM) | 0.008 (≈ 0.0188 µM) | 0.018 (≈ 0.0422 µM) | CCNC(=Nc1nc(CC)ncc1CSc1nnc(-c2ccc(N)cc2)o1)NCC [Compound A-154] | 0.0412 | >10
– | 0.0032 (≈ 0.00743 µM) | 0.0028 (≈ 0.0065 µM) | 0.0016 (≈ 0.00372 µM) | – | CCNC(=Nc1nc(C)ncc1CSc1nnc(-c2ccc(F)cc2N)o1)NCC [Compound A-49] | <0.000508 | 3.33 (≈ 7.73 µM)
0.026 (≈ 0.063 µM) | 0.028 (≈ 0.0679 µM) | – | 0.0071 (≈ 0.0172 µM) | – | CCNC(=Nc1nc(C)ncc1CSc1nnc(-c2ccccc2N)o1)NCC [Compound A-24] | 0.0137 | 3.33 (≈ 8.07 µM)
– | 0.053 (≈ 0.124 µM) | – | 0.006 (≈ 0.0141 µM) | 0.0087 (≈ 0.0204 µM) | CCNC(=Nc1nc(C)ncc1CSc1nnc(-c2ccc(C)cc2N)o1)NCC [Compound A-63] | 0.0412 | 3.33 (≈ 7.81 µM)
0.06 (≈ 0.128 µM) | 0.055 (≈ 0.117 µM) | – | 0.016 (≈ 0.0341 µM) | – | CCNC(=Nc1nc(C)ncc1CSc1nnc(-c2ccccc2NC(=O)CC)o1)NCC [Compound A-26] | 0.370 | >10
0.38 (≈ 0.832 µM) | 2 (≈ 4.38 µM) | 0.064 (≈ 0.14 µM) | 0.023 (≈ 0.0504 µM) | – | CCNC(=Nc1ncncc1CSc1nnc(-c2ccc(N)cc2)o1)NCCOC(C)=O [Compound A-112] | 1.11 | >10
0.032 (≈ 0.0695 µM) | 0.065 (≈ 0.141 µM) | 0.049 (≈ 0.106 µM) | 0.023 (≈ 0.0499 µM) | – | CCNC(=Nc1nc(C)ncc1CSc1nnc(-c2ccsc2NC(C)=O)o1)NCC [Compound D-36] | 0.0412 | >10
0.013 (≈ 0.0338 µM) | 0.032 (≈ 0.0832 µM) | 0.0084 (≈ 0.0218 µM) | 0.0067 (≈ 0.0174 µM) | 0.015 (≈ 0.039 µM) | CNC(=Nc1nc(C)ncc1CSc1nnc(-c2ccccc2N)o1)NC [Compound A-70] | 0.123 | –

From patent publication US6420367B1, “Pyrimidine derivatives exhibiting antitumor activity” (Shionogo & Co., Ltd., priority 1998, dated 2002)
